Common to all, as to format: cell-based
Data set [1] relates to A2058 (human melanoma cells). In words: A2058 cell scratch assay (cell migration inhibition). The following applies: A2058 scratch area 0 h vs 24 h, 10 μM LPA, read-out: Cell migration inhibition rate. The procedure: The activity of the compounds disclosed herein at the cell level in vitro is evaluated by A2058 (human melanoma cells, Beina Bio, BNCC341099) cell scratch assay. The inhibitory activity of the compounds against LPAR1 can be reflected by inhibition of cell scratch healing.
A2058 cells in a T75 cm^2 cell culture flask were digested and gently pipetted into single cells, adjusted to a cell density of 4×10^5 cells/mL, and then seeded into a 24-well plate. After the cell confluence reached 80%, the cell culture plate was taken out and the original medium was discarded. Serum-free medium was then added, and the cells were starved overnight in an incubator (37° C., 5% CO2). The cell culture plate was then taken out, and cell scratches were made along the diameter of the wells using a 200 μL pipette tip. The cell culture plate was then added with 500 μL of serum-free medium and then shaken gently to wash away the residual cells on the scratched surface, and this was repeated twice. The medium was discarded and 500 μL of 1% FBS medium containing the compound was then added, and the mixture was incubated at 37° C. for 30 min. […] Olympus CKX53 was used to observe the scratches, and MShot image analysis system was used to take pictures and measure the scratch area at 0 h. Then the cell culture plate was incubated in the incubator (37° C., 5% CO2). 24 h later, the scratches were observed again with Olympus CKX53, and MShot image analysis system was used to take pictures and measure the scratch area at 24 h. Cell migration inhibition rate was calculated according to the following formula: […]

In data set [2] the target is T1, hLPAR1 (human lysophosphatidic acid receptor 1) (Homo sapiens, UniProt Q92633).
T1 construct: expressed in transfected cells
In words: FLIPR intracellular calcium assay, hLPAR1 expressed in CHO-K1 cells. To be noted: antagonism of 1 μM LPA-induced calcium increase, CHO-K1 cells expressing hLPAR1; read-out: LPAR1 IC50. The procedure: The antagonist property of the compounds disclosed herein was determined using the FLIPR (fluorescence imaging plate reader) method, wherein the compounds are inhibitors for the intracellular calcium increase induced by activation of hLPAR1 (human lysophosphatidic acid receptor 1, accession No. NM_001401.4) expressed in CHO-K1 cells (Chinese hamster ovary cells K1, ATCC).
CHO-K1 cells stably expressing hLPAR1 were cultured in F-12 medium containing 10% FBS (fetal bovine serum, Gibco, 10099-141), 1% penicillin-streptomycin (Gibco, 15140-122) and 0.4 mg/mL hygromycin B (Gibco, 10687010) in a cell incubator (37° C., […]). During 18-24 h prior to the FLIPR experiment, cells at 250,000 cells/mL were seeded into a 96-well plate (25,000 cells/well) and incubated overnight in the cell incubator. On the day of the experiment, the medium was discarded and the cells were washed in a FLIPR buffer (0.3 mL of probenecid (Thermo, P36400), 0.6 mL of 1 M HEPES (Invitrogen, 15630080) and 29.1 mL of HBSS (Invitrogen, 14065056) per 30 mL of buffer). Each well was added with 75 μL of 1 mM Fluo-4 AM fluorescent dye (Thermo, F14202) and then the cells were subjected to dye-loading incubation at 37° C. for 1.0 h. The 96-well plate was then washed once with buffer, added with a buffer containing a test compound or vehicle at 50 μL per well and then incubated for 30 min at room temperature. The cell plate was then placed in the FLIPR for baseline fluorescence measurements (excitation at 485 nm and emission at 525-535 nm). An agonist (oleoyl-L-α-lysophosphatidic acid sodium salt (Sigma, L7260) at a final concentration of 1 μM) or a vehicle (ultrapure water) was then added at 50 μL/well, fluorescence values were measured for 2 min at 1-second intervals, and finally the output fluorescence counts were analyzed.
(Calcium assays in cells follow changes in intracellular calcium, usually with a dye or a luminescent sensor.)

Data set [3] can be described thus: In vitro cytotoxicity assay in HepG2 cells, CCK-8 method. The following applies: human, 48 h incubation. The procedure:
In vitro cytotoxicity assay for the compounds disclosed herein was performed in HepG2 cells using the CCK-8 method. HepG2 cells (Beina Bio) in the logarithmic growth phase were collected, the concentration of cell suspension was adjusted, and then the cells were plated on a 96-well cell culture plate at 50,000 cells/well. • The cells were then incubated overnight in a cell incubator (5% CO2, 37° C.), and after 80-90% cell confluence was achieved, test compounds or vehicle (DMSO) at various concentration gradients were added after medium change. The resulting mixture was incubated in the cell incubator (5% CO2, 37° C.) for 48 h. After the treatment, the medium in the plate was discarded. The plate was washed twice with PBS, added with CCK-8 working solution (Beyotime) at 100 μL per well, and then incubated at 37° C. for 1.5 h in the dark. Absorbance at OD450nm was measured for each well on a microplate reader, and CC50 value of each compound was analyzed and calculated.
A general note: Tetrazolium dyes change colour on reduction, which living cells bring about.

This passage reports inhibition, IC50 and CC50 results from patent US12378204B2, “Triazole compounds and preparation method therefor and use thereof” (WUHAN LL SCIENCE AND TECHNOLOGY DEVELOPMENT CO., LTD., priority 2019, dated 2025).

T1 sequence (Q92633 whole entry): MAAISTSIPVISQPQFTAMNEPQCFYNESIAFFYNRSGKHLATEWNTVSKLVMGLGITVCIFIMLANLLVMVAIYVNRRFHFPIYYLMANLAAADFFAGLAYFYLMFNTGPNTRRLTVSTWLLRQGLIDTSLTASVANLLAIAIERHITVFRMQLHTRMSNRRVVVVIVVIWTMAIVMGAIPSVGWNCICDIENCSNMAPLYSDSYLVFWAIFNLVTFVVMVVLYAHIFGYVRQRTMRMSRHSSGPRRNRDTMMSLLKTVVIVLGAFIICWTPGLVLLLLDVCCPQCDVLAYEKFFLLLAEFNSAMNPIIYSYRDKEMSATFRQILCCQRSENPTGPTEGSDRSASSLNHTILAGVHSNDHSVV

For the compound `Cn1nnc(-c2ccc(O[C@H]3CCC[C@H](C(=O)O)C3)cc2)c1CNS(=O)(=O)c1ccccc1` (racemic) [Compound 18, (+/−)-(1S,3S)-3-(4-(1-methyl-5-(benzenesulfonamidomethyl)-1H-1,2,3-triazol-4-yl)phenoxy)cyclohexane-1-carboxylic acid], the inhibition in data set [1] was 30 to 50%. For the same compound, in data set [2], the IC50 – broadly, the concentration that inhibits the measured activity by half – was in the range of 50 to 300 nM. The CC50 – broadly, the concentration giving 50% cytotoxicity – at 48 h in data set [3] is more than 200000 nM.
Turning to `CN(C(=O)Cc1c(-c2ccc(O[C@H]3CCC[C@H](C(=O)O)C3)cc2)nnn1C)C1CCCC1` (racemic) [Compound 19], the inhibition in data set [1] was 0 to 30%. In addition, the IC50 in data set [2] lay within 50 to 300 nM. Also, the cytotoxic concentration (CC50) at 48 h in data set [3] is more than 200000 nM.
For `Cn1nnc(-c2ccc(O[C@H]3CCC[C@H](C(=O)O)C3)cc2)c1CNC(=O)C1CCCC1` (racemic) [Compound 20, (+/−)-(1S,3S)-3-(4-(5-(cyclopentanecarboxamido<oxalylamino>methyl)-1-methyl-1H-1,2,3-triazol-4-yl)phenoxy)cyclohexane-1-carboxylate], the inhibition in data set [1] was in the range of 30 to 50%. Also, the IC50 in data set [2] is 50 to 300 nM. Besides, the CC50 at 48 h in data set [3] was more than 200000 nM.
For `Cn1nnc(-c2ccc(O[C@H]3CCC[C@H](C(=O)O)C3)cc2)c1COC1CCCC1` (racemic) [Compound 21, (+/−)-(1S,3S)-3-(4-(5-((cyclopentyloxy)methyl)-1-methyl-1H-1,2,3-triazol-4-yl)phenoxy)cyclohexane-1-carboxylic acid], in that order: 30 to 50%, 50 to 300 nM and more than 200000 nM.
Turning to `CC(C)OCc1c(-c2ccc(O[C@H]3CCC[C@H](C(=O)O)C3)cc2)nnn1C` (racemic) [Compound 22, (+/−)-(1S,3S)-3-(4-(5-(isopropoxymethyl)-1-methyl-1H-1,2,3-triazol-4-yl)phenoxy)cyclohexane-1-carboxylic acid], the inhibition in data set [1] lay in the range of 30 to 50%. In addition, the IC50 in data set [2] is 50 to 300 nM. In data set [3], this compound yielded a 50% cytotoxic concentration (CC50) at 48 h of more than 200000 nM.
Regarding `Cn1nnc(-c2ccc(O[C@H]3CCC[C@H](C(=O)O)C3)cc2)c1COCc1ccccc1` (racemic) [Compound 23, (+/−)-(1S,3S)-3-(4-(5-((benzyloxy)methyl)-1-methyl-1H-1,2,3-triazol-4-yl)phenoxy)cyclohexane-1-carboxylic acid], the inhibition in data set [1] was in the range of 30 to 50%. In data set [2], the half-inhibitory concentration (IC50) is 50 to 300 nM. Besides, in data set [3], the CC50 at 48 h was more than 200000 nM.
`Cn1nnc(-c2ccc(O[C@H]3CCC[C@H](C(=O)O)C3)cc2)c1NCc1ccccc1` (racemic) [Compound 24, (+/−)-(1S,3S)-3-(4-(5-(benzylamino)-1-methyl-1H-1,2,3-triazol-4-yl)phenoxy) cyclohexane-1-carboxylate]: the inhibition in data set [1] fell in the range of 0 to 30%. In data set [2], the concentration for half-maximal inhibition (IC50) is 300 to 10000 nM. Further, the CC50 at 48 h in data set [3] is more than 200000 nM.
In the case of `CN(C(=O)CCc1nnn(C)c1-c1ccc(O[C@H]2CCC[C@H](C(=O)O)C2)c(C(F)(F)F)n1)C1CCCC1` (racemic) [Compound 27-B, (+/−)-(1S,3S)-3-((6-(4-(3-(cyclopentyl(methyl)amino)-3-carbonylpropyl)-1-methyl-1H-1,2,3-triazol-5-yl)-2-(trifluoromethyl)pyridin-3-yl)oxo)cyclohexane-1-carboxylic acid], the inhibition in data set [1] was in the range of 0 to 30%. Moreover, the IC50 in data set [2] lay in the range of 300 to 10000 nM. For the same compound, in data set [3], the CC50 at 48 h was more than 200000 nM.
`Cn1nnc(-c2ccc(O[C@H]3CCC[C@H](C(=O)O)C3)c(C(F)(F)F)n2)c1CNC(=O)OC1CCCC1` (racemic) [Compound 28, (+/−)-(1S,3S)-3-((6-(5-((((cyclopentyloxy)carbonyl)amino)methyl)-1-methyl-1H-1,2,3-triazol-4-yl)-2-(trifluoromethyl)pyridin-3-yl)oxo)cyclohexane-1-carboxylic acid]: the inhibition in data set [1] was 50 to 70%. Further, the half-maximal inhibitory concentration (IC50) in data set [2] was in the range of 50 to 300 nM. The compound further came in with a CC50 at 48 h in data set [3] of more than 200000 nM.
Turning to `CN(C(=O)NCc1c(-c2ccc(O[C@H]3CCC[C@H](C(=O)O)C3)cc2)nnn1C)C1CCCC1` (racemic) [Compound 30, (+/−)-(1S,3S)-3-(4-(5-((3-cyclopentyl-3-methylureido)methyl)-1-methyl-1H-1,2,3-triazol-4-yl)phenoxy)cyclohexane-1-carboxylic acid], the inhibition in data set [1] fell in the range of 30 to 50%. In data set [2], the IC50 was in the range of 50 to 300 nM. In data set [3], this compound had a 50% cytotoxic concentration (CC50) at 48 h of more than 200000 nM.
On the same counts, the results for `Cn1nnc(-c2ccc(O[C@H]3CCC[C@H](C(=O)O)C3)cc2)c1CNC(=O)Cc1ccccc1` [Compound 4, (1S,3S)-3-((4-(5-(2-N-phenylacetamido))-1-methyl-1H-1,2,3-triazol-4-yl)-phenoxy)cyclohexane-1-carboxylic acid] are 30 to 50%, 50 to 300 nM and more than 200000 nM.
`Cn1nnc(-c2ccc(O[C@H]3CCC[C@H](C(=O)O)C3)cc2)c1-c1cn(Cc2ccccc2)c(=O)o1` [Compound 8]: the inhibition in data set [1] lay within 0 to 30%. For the same compound, the half-inhibitory concentration (IC50) in data set [2] fell in the range of 50 to 300 nM. In data set [3], this compound gave a CC50 at 48 h of more than 200000 nM.
As to `Cn1nnc(-c2ccc(O[C@H]3CCC[C@H](C(=O)O)C3)cc2)c1C1CN(Cc2ccccc2)C(=O)O1` (stereo partly drawn) [Compound 9, (1S,3S)-3-(4-(5-(3-benzyl-2-carbonyloxazolidin-5-yl)-1-methyl-1H-1,2,3-triazol-4-yl)phenoxy)cyclohexane-1-carboxylic acid], the inhibition in data set [1] lay in the range of 30 to 50%. The IC50 in data set [2] lay in the range of 50 to 300 nM. This compound also displayed a CC50 at 48 h in data set [3] of more than 200000 nM.
Turning to `CN(Cc1ccccc1)C(=O)OCc1c(-c2ccc(O/C=C/C(=O)O)cc2)nnn1C` [Compound 10, (E)-3-(4-(5-(((benzyl(methyl)carbamoyl)oxo)methyl)-1-methyl-1H-1,2,3-triazol-4-yl)phenoxy)acrylic acid], the inhibition in data set [1] lay in the range of 30 to 50%. Besides, in data set [2], the IC50 lay in the range of 50 to 300 nM. For the same compound, the 50% cytotoxic concentration (CC50) at 48 h in data set [3] is more than 200000 nM.
For `CN(Cc1ccccc1)C(=O)OCc1c(-c2ccc(OCCC(=O)O)cc2)nnn1C` [Compound 11, 3-(4-(5-(((benzyl(methyl)carbamoyl)oxo)methyl)-1-methyl-1H-1,2,3-triazol-4-yl)phenoxy)propionic acid], the inhibition in data set [1] lay within 0 to 30%. The IC50 in data set [2] lay in the range of 50 to 300 nM. Also, the half-maximal cytotoxic concentration (CC50) at 48 h in data set [3] was more than 200000 nM.
As to `CN(Cc1ccccc1)C(=O)OCc1c(-c2ccc(N[C@H]3CCC[C@H](C(=O)O)C3)cc2)nnn1C` [Compound 13, 3-((4-(5-(((benzyl(methyl)carbamoyl)oxo)methyl)-1-methyl-1H-1,2,3-triazol-4-yl)phenyl)amino)cyc lohexanecarboxylic acid], the inhibition in data set [1] lay in the range of 0 to 30%. In data set [2], the IC50 was 50 to 300 nM. The same compound returned a CC50 at 48 h in data set [3] of more than 200000 nM.
`CN(Cc1c(-c2ccc(O[C@H]3CCC[C@H](C(=O)O)C3)cc2)nnn1C)C(=O)OCc1ccccc1` [Compound 14, (1S,3S)-3-(4-(5-((((benzyloxy)carbonyl)(methyl)amino)methyl)-1-methyl-1H-1,2,3-triazol-4-yl)phenoxy)cyclohexane-1-carboxylic acid]: the inhibition in data set [1] was 30 to 50%. Besides, in data set [2], the IC50 lay within 50 to 300 nM. Also, in data set [3], the CC50 at 48 h is more than 200000 nM.
